Each compound was assayed on rabbit skeletal myofibrils (approximately 90% fast fibers) (assay: Activation of fast skeletal myofibrils (PUMA coupled-enzyme ATPase assay at pCa25)). Details: concentration at which the compound increased the enzymatic activity by 40%; calcium at pCa25; PM12 buffer pH 6.8.
Type: biochemical
Description: Preparation of fast skeletal myofibrils. Rabbit skeletal myofibrils were prepared based upon the method of Herrmann et al. (Biochem. 32(28):7255-7263(1993). Myofibrils were prepared from rabbit psoas muscle purchased from Pel-Freez Biologicals (Arkansas) within 2 days of ordering, stored on ice. Minced muscle was homogenized in 10 volumes of ice-cold “standard” buffer (50 mM Tris, pH 7.4, 0.1 M potassium acetate, 5 mM KCl, 2 mM DTT, 0.2 mM PMSF, 10 μM leupeptin, 5 μM pepstatin, and 0.5 mM sodium azide) containing 5 mM EDTA and 0.5% Triton X-100 using an Omni-Macro homogenizer. Myofibrils were recovered by low speed centrifugation (3000 rpm for 10 minutes) and washed 2 times in the Triton X-100 containing buffer to ensure removal of cellular membrane. Following the Triton washes, myofibrils were washed 3 times in “standard” buffer containing 2 mM magnesium acetate. A final wash in assay buffer (12 mM PIPES, pH 6.8, 60 mM KCl, 1 mM DTT) was performed and brought to 10% sucrose for flash freezing in liquid nitrogen and storage at −80° C.
Activation of Fast Skeletal Myofibrils. Fast fiber activators were identified by measuring the enzymatic activity of muscle myofibril preparations using the proprietary PUMA™ (see, e.g., U.S. Pat. Nos. 6,410,254, 6,743,599, 7,202,051, and 7,378,254) assay system. Myofibril preparations consisted of rabbit skeletal muscle (approximately 90% fast fibers) that had been mechanically homogenized and washed with a detergent (triton X-100) to remove cellular membranes. This preparation retained all of the sarcomeric components in a native conformation and the enzymatic activity was still regulated by calcium. Compounds were tested using a myofibril suspension and a level of calcium sufficient to increase enzymatic activity of the myofibrils to 25% of their maximal rate (termed pCa25). Enzymatic activity was tracked via a pyruvate kinase and lactate dehydrogenase-coupled enzyme system. This assay regenerates myosin-produced ADP into ATP by oxidizing NADH, producing an absorbance change at 340 nm. The buffering system was 12 mM Pipes, 2 mM MgCl2, 1 mM DTT at pH 6.8 (PM12 buffer).
CC(C)(CNc1ncc(-c2cc(C(N)=O)ccc2F)cn1)c1ncccc1Cl [3-(2-{[2-(3-chloro(2-pyridyl))-2-methylpropyl]amino}pyrimidin-5-yl)-4-fluorobenzamide] was tested, and the “Mean AC1.4” value was “A (A=<1 uM)”.
Oc1ccc(-c2cnc(NC[C@]3(c4ncccc4F)C[C@H](F)C3)nc2)nn1 [6-[2-({[3-fluoro-1-(3-fluoro(2-pyridyl))cyclobutyl]methyl}amino)pyrimidin-5-yl]pyridazin-3-ol] was tested, and the “Mean AC1.4” value was “D (D=>20 uM)”.
In the case of NC(=O)c1ccc(F)cc1-c1cnc(NC[C@]2(c3ncccc3F)C[C@H](F)C2)nc1 [4-fluoro-2-[2-({[3-fluoro-1-(3-fluoro(2-pyridyl))cyclobutyl]methyl}amino)pyrimidin-5-yl]benzamide], the “Mean AC1.4” value is reported as “B (B=1-10 uM)”.
With CC(C)(Nc1ncc(-c2cn3cc(C(N)=O)ccc3n2)cn1)c1ncccc1Cl [2-(2-{[1-(3-chloro(2-pyridyl))-isopropyl]amino}pyrimidin-5-yl)-4-hydroimidazo[1,2-a]pyridine-6-carboxamide] the “Mean AC1.4” value was “C (C=10-20 uM)”.
For CC(C)(Nc1ncc(-c2cc(CC(N)=O)ccc2F)cn1)c1ncccc1F [2-[4-fluoro-3-(2-{[1-(3-fluoro(2-pyridyl))-isopropyl]amino}pyrimidin-5-yl)phenyl]acetamide], the “Mean AC1.4” value was “B (B=1-10 uM)”.
In the case of NC(=O)c1cnc(NC2(c3ncccc3F)CCC2)nc1C(F)(F)F [2-{[(3-fluoro(2-pyridyl))cyclobutyl]amino)-4-(trifluoromethyl)pyrimidine-5-carboxamide], the “Mean AC1.4” value is reported as “D (D=>20 uM)”.
In the case of CNC(=O)c1ccc(O)c(-c2cnc(NCC3(c4ncccc4F)CCC3)nc2)c1 [{3-[2-({[(3-fluoro(2-pyridyl))cyclobutyl]methyl}amino)pyrimidin-5-yl]-4-hydroxyphenyl}-N-methylcarboxamide], the “Mean AC1.4” value is reported as “B (B=1-10 uM)”.
In the case of COc1ccc(NC(=O)c2cnc(NCC3(c4ncccc4F)CCC3)nc2)cn1 [[2-({[(3-fluoro(2-pyridyl))cyclobutyl]methyl}amino)pyrimidin-5-yl]-N-(6-methoxy(3-pyridyl))carboxamide], the “Mean AC1.4” value is reported as “D (D=>20 uM)”.
With CC(C)(Nc1ncc(-c2cc(C(N)=O)ncn2)cn1)c1ncccc1Cl [6-(2-{[1-(3-chloro(2-pyridyl))-isopropyl]amino}pyrimidin-5-yl)pyrimidine-4-carboxamide] the “Mean AC1.4” value was “B (B=1-10 uM)”.
In the case of NC(=O)c1ccc2nc(NC3(c4ncccc4F)CCC3)ncc2c1 [2-{[(3-fluoro-2-pyridyl)cyclobutyl]amino} quinazoline-6-carboxamide], the “Mean AC1.4” value is reported as “D (D=>20 uM)”.
For CC(C)(Nc1ncc(-c2ncc(C(N)=O)s2)cn1)c1cccc(OC(F)F)n1 [2-[2-({1-[6-(difluoromethoxy)(2-pyridyl)]-isopropyl}amino)pyrimidin-5-yl]-1,3-thiazole-5-carboxamide], the “Mean AC1.4” value was “A (A=<1 uM)”.
With CC(C)(CNc1ncc(-c2cccc(C(N)=O)c2)cn1)c1ccc(F)cc1 [3-(2-{[2-(4-fluorophenyl)-2-methylpropyl]amino}pyrimidin-5-yl)benzamide] the “Mean AC1.4” value was “A (A=<1 uM)”.
With N#Cc1cnn(-c2cnc(NC[C@]3(c4ncccc4F)C[C@H](F)C3)nc2)c1 [1-[2-({[3-fluoro-1-(3-fluoro(2-pyridyl))cyclobutyl]methyl}amino)pyrimidin-5-yl]pyrazole-4-carbonitrile] the “Mean AC1.4” value was “C (C=10-20 uM)”.
With NC(=O)Cc1cnc(-c2cnc(NCC3(c4ncccc4Cl)CCC3)nc2)s1 [2-{2-[2-({[(3-chloro-2-pyridyl)cyclobutyl]methyl}amino)pyrimidin-5-yl]-1,3-thiazol-5-yl}acetamide] the “Mean AC1.4” value was “A (A=<1 uM)”.
For O=c1cc(-c2cnc(NC[C@]3(c4ncccc4F)C[C@H](F)C3)nc2)[nH]c(=O)[nH]1 [6-[2-({[3-fluoro-1-(3-fluoro(2-pyridyl))cyclobutyl]methyl}amino)pyrimidin-5-yl]-1,3-dihydropyrimidine-2,4-dione], the “Mean AC1.4” value was “B (B=1-10 uM)”.
In the case of CC(C)(Nc1ncc(-n2cc(C(N)=O)cn2)cn1)c1ncccc1F [1-(2-{[1-(3-fluoro(2-pyridyl))-isopropyl]amino}pyrimidin-5-yl)pyrazole-4-carboxamide], the “Mean AC1.4” value is reported as “D (D=>20 uM)”.
With O=C(O)c1cnn(-c2cnc(NCC3(c4ncccc4F)CCC3)nc2)c1 [1-[2-({[(3-fluoro-2-pyridyl)cyclobutyl]methyl}amino)pyrimidin-5-yl]pyrazole-4-carboxylic acid] the “Mean AC1.4” value was “D (D=>20 uM)”.
For CC(C)[C@@H](Nc1ncc(-c2ncc(C(N)=O)s2)cn1)c1ncccc1Cl [2-(2-{[(1R)-1-(3-chloro(2-pyridyl))-2-methylpropyl]amino}pyrimidin-5-yl)-1,3-thazole-5-carboxamide], the “Mean AC1.4” value was “D (D=>20 uM)”.
With CC(C)(Nc1ncc(-c2cn3cc(C(=O)O)ccc3n2)cn1)c1ncccc1Cl [2-(2-{[1-(3-chloro(2-pyridyl))-isopropyl]amino}pyrimidin-5-yl)-4-hydroimidazo[1,2-a]pyridine-6-carboxylic acid] the “Mean AC1.4” value was “D (D=>20 uM)”.
With CC(C)(Nc1ncc(-c2nc(C(N)=O)co2)cn1)c1ncccc1Cl [2-(2-{[1-(3-chloro(2-pyridyl))-isopropyl]amino}pyrimidin-5-yl)-1,3-oxazole-4-carboxamide] the “Mean AC1.4” value was “D (D=>20 uM)”.
For COc1ncc(-c2cnc(NC[C@]3(c4ncccc4F)C[C@H](F)C3)nc2)c(OC)n1 [[5-(2,4-dimethoxypyrimidin-5-yl)pyrimidin-2-yl]{[3-fluoro-1-(3-fluoro(2-pyridyl))cyclobutyl]methyl}amine], the “Mean AC1.4” value was “D (D=>20 uM)”.
NC(=O)c1cccc(-c2cnc(NCC3(c4ccccn4)CCC3)nc2)c1 [3-(2-{[(2 pyridylcyclobutyl)methyl]amino}pyrimidin-5-yl)benzamide] was tested, and the “Mean AC1.4” value was “B (B=1-10 uM)”.
With O=C(O)c1nc2cnc(NCC3(c4ncccc4F)CCC3)nc2s1 [5-({[(3-fluoro-2-pyridyl)cyclobutyl]methyl}amino)-1,3-thiazolo[5,4-d]pyrimidine-2-carboxylic acid] the “Mean AC1.4” value was “D (D=>20 uM)”.
N#Cc1ccnc(-c2cnc(NC[C@]3(c4ncccc4F)C[C@H](F)C3)nc2)c1 [2-[2-({[3-fluoro-1-(3-fluoro(2-pyridyl))cyclobutyl]methyl)amino)pyrimidin-5-yl]pyridine-4-carbonitrile] was tested, and the “Mean AC1.4” value was “B (B=1-10 uM)”.
NC(=O)c1cc2cnc(NCC3(c4ncccc4F)CCC3)nc2s1 [2-({[(3-fluoro-2-pyridyl)cyclobutyl]methyl}amino) thiopheno[2,3-d]pyrimidine-6-carboxamide] was tested, and the “Mean AC1.4” value was “C (C=10-20 uM)”.
For CC(=O)N1CC(NC(=O)c2cccc(-c3cnc(NC[C@]4(c5ncccc5F)C[C@H](F)C4)nc3)c2)C1 [N-(1-acetylazetidin-3-yl){3-[2-({[3-fluoro-1-(3-fluoro(2-pyridyl))cyclobutyl]methyl}amino)pyrimidin-5-yl]phenyl}carboxamide], the “Mean AC1.4” value was “B (B=1-10 uM)”.
With CC(C)(Nc1ncc(-c2ncc(CNC(=O)CN)s2)cn1)c1ncccc1F [2-amino-N-{[2-(2-{[1-(3-fluoro(2-pyridyl))-isopropyl]amino}pyrimidin-5-yl)(1,3-thiazol-5-yl)]methyl}acetamide] the “Mean AC1.4” value was “D (D=>20 uM)”.
For O=C(Nc1ccon1)c1cnc(NCC2(c3ncccc3F)CCC2)nc1 [[2-({[(3-fluoro(2-pyridyl))cyclobutyl]methyl}amino)pyrimidin-5-yl]-N-isoxazol-3-ylcarboxamide], the “Mean AC1.4” value was “B (B=1-10 uM)”.
In the case of NC(=O)c1cccc(-c2cnc(NCC3(c4ncccc4Cl)CCC3)nc2)c1 [3-[2-({[(3-chloro-2-pyridyl)cyclobutyl]methyl}amino)pyrimidin-5-yl]benzamide], the “Mean AC1.4” value is reported as “A (A=<1 uM)”.
For CC(C)(C)Nc1ncc(-c2cccc(C(N)=O)c2)cn1 [3-{2-[(tert-butyl)amino]pyrimidin-5-yl} benzamide], the “Mean AC1.4” value was “D (D=>20 uM)”.
CC(=O)Nc1ccccc1-c1cnc(NC[C@]2(c3ncccc3F)C[C@H](F)C2)nc1 [N-{2-[2-({[3-fluoro-1-(3-fluoro(2-pyridyl))cyclobutyl]methyl}amino)pyrimidin-5-yl]phenyl}acetamide] was tested, and the “Mean AC1.4” value was “D (D=>20 uM)”.
CC(C)(Nc1ncc(-c2nc(C(=O)O)co2)cn1)c1ncccc1Cl [2-(2-{[1-(3-chloro(2-pyridyl))-isopropyl}amino}pyrimidin-5-yl)-1,3-oxazole-4-carboxylic acid] was tested, and the “Mean AC1.4” value was “D (D=>20 uM)”.
For CS(=O)(=O)NCCNC(=O)c1cnc(NCC2(c3ncccc3F)CCC2)nc1 [[2-({[(3-fluoro(2-pyridyl))cyclobutyl]methyl}amino)pyrimidin-5-yl]-N-[(methylsulfonyl)amino]ethyl} carboxamide], the “Mean AC1.4” value was “D (D=>20 uM)”.

From patent US11369565B2, “Amino-pyrimidine skeletal muscle modulators” (Cytokinetics, Inc., priority 2010, dated 2022)
